Experimental data as given in patent US6489356B2, “Method for treating pain in humans” (priority 2000, dated 2002).
Entries after “also recorded” stand apart in the source; their conditions may differ. Like-named read-outs stand apart in the source and are kept apart here.

Legend:
[1] = target: T1, human recombinant A1 adenosine receptors (Homo sapiens, UniProt P30542); assay: cyclic AMP production in CHO cells expressing the A1 adenosine receptor; type: cell-based
T1 construct: expressed in transfected cells; host or cells: CHO cells (CHO: huA1)
T1 sequence (P30542 1-326): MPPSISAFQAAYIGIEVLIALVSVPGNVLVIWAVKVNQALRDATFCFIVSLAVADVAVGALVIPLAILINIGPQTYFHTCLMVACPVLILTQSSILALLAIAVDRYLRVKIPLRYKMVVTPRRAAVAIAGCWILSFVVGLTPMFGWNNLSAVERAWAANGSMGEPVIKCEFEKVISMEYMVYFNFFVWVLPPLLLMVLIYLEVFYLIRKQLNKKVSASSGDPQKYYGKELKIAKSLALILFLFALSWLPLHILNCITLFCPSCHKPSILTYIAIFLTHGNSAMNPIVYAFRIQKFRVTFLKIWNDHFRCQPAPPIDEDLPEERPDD
Experimental: Cells were removed from liquid nitrogen storage when needed, and grown in Ham's F-12 culture medium with 10% fetal bovine serum and 0.5 mg/ml of antibiotic G-418. Aliquots of cells were placed into 12-well cultured plates with culture medium, serum, and antibiotic for 48-72 hours, by which time the cells had grown to a confluent monolayer.
To begin an experiment, growth medium was removed from the culture plates and cells were washed once with Hanks' buffered saline solution. […] After 6 min of incubation at 36° C. in the presence of drugs, the incubation solution was removed and hydrochloric (final concentration, 50 mM) was added to terminate drug action.
The content of cAMP in acidified extracts of cells was determined by radioimmunoassay as previously described (12). The compounds listed in reference 7 (U.S. Pat. No. 5,939,432) relating to allosteric enhancers, were tested using this method.
Because the magnitude of the effects of allosteric enhancers on cells changed with time and batch of cells, the actions of each test compound to enhance the effect of CPA (and thus reduce cAMP content of CHO cells) were normalized to the response of cells to 10 μM PD 81,723. […] Enhancement by Compound T62 began at 10 nM. There was no antagonism of this effect even at 10 μM of Compound T62.

[2] = system: mechanical hypersensitivity after spinal nerve ligation in the rat; assay: spinal nerve ligation model of neuropathic pain, von Frey withdrawal threshold; type: in vivo; conditions: for dose returning sensitivity (withdrawal threshold) to normal: rat
Text: Following Animal Care and Use Committee approval, mechanical hypersensitivity was generated in male Sprague-Dawley rats as described in the following paper. (Kim,S. H. and Chung, J. M., An experimental model for peripheral neuropathy produced by segmental spinal nerve ligation in the rat, Pain, 50 (1992) 355-363. Briefly, under general anesthesia with inhalational halothane, the left L5 and L6 spinal nerves were identified through a small laminotomy and tightly ligated. Approximately one week later, an intrathecal catheter was placed under general anesthesia by insertion under direct vision of a polyethylene catheter through a small slit in the dura at the cisterna magnum and advanced 8.5 cm such that the catheter tip resided in the lower lumbar intrathecal space. Animals were studied approximately one week later.
Ligation of the lumbar spinal nerves results in a primarily unilateral increase in the sensitivity to light touch on the operated side. Sensitivity was assessed via application of calibrated von Frey filaments. The withdrawal threshold was determined using an up down method as described in Chaplan, S. R., Bach, F. W., Pogrel, J. W., Chung, J. M., and Yaksh, T. L., Quantitative assessment of tactile allodynia in the rat paw, J. Neurosci. Methods, 53 (1994) 55-63.
Von Frey filaments are scientific apparatus designed to apply a pre-determined pressure to a surface. These filaments are flexible bristles with a flat tip. The applied pressure is determined by the diameter of the filament.
In these studies, the animals are placed on top of a wired cage. The goal of these studies is to determine the pressure at which the animal perceives the pressure applied as painful and lifts its foot. The scientist determines the discomfort pressure threshold by pressing the tip of von Frey filaments, one filament at a time, to the bottom of the foot through the wired cage floor. When a slight pressure is applied to the underside of the foot, the animal feels the sensation but it will not lift its foot because this sensation is not painful, or uncomfortable.
In a normal animal, the threshold for discomfort is approximately 35 g pressure. In an animal whose foot is rendered more sensitive to pressure, the withdrawal threshold is less than 4 g. That is, a pressure that is not perceived as pain in the unaltered, control foot will be perceived as a painful stimulus in the surgically altered foot.
Mechanical withdrawal threshold was determined before and at intervals after intrathecal injection of Compound T62, 1-5 μg. […] In the study, the investigator was blinded to the dose administered. Compound T62 was dissolved in cyclodextrin, which had no effect on withdrawal threshold when administered alone.
Animals received 6 injections, each separated by a minimum of 4 days to prevent development of tolerance. The withdrawal threshold to mechanical stimulation with von Frey filaments was determined before and at intervals of […] following intrathecal injection, then again at 20 hours following injection. A dose response was determined using the time of peak effect (2 hr for each compound) and the ED50 determined by linear regression.
The ED50 for the mixture (total of each component combined) was determined by linear regression, an isobologram constructed, and the observed ED50 was compared to the theoretical ED50 by a t-test as previously described in Tallarida, R. J., Statistical analysis of drug combinations for synergism, Pain, 49 (1992) 93-97. In order to determine the site of action of Compound T62, two experiments were performed. […]
Compound T62 was dissolved in 45% […] (RBI, Natick, Mass. ). Drugs were administered intrathecal in a 5 μl volume followed by 10 μl of saline to flush the catheter.
Data are presented as median±25th and 75th percentile (for raw withdrawal thresholds) or by mean±SE. Linear regression was used to calculate the ED50 for each drug alone and for the fixed ratio combination. […]

[3] = system: mouse; type: in vivo; conditions: 1024 mg/kg i.p., listed as Compound T-62
Experimental: As indicated above, Compound T62 is an effective treatment for neuropathic pain at a dose of 15 mg/kg by intraperitoneal (i.p.) injection. In addition, the safety of T62 was evaluated at 64, 128, 256, 512 and 1024 mg/kg (Table 1).

[4] = system: carrageenan-induced hyperalgesia in rats; assay: carrageenan paw model of inflammatory pain, Hargreaves thermal withdrawal; type: in vivo, rat
Experimental: Compound T62 was tested for its efficacy in treating inflammatory pain by use of the carrageenan paw model. Carrageenan is a water-extractable polysaccharide obtained from seaweeds. […] Carrageenan-induced hyperalgesia is believed to occur as a consequence of sensitization of primary afferent nociceptors and neuron plasticity intrinsic to the spinal cord.
Animals were prepared with chronic lumbar intrathecal catheters. Baseline measurement of hindpaw withdrawal latency to thermal stimulation were obtained on a Hargreaves device. Animals received a single intrathecal (IT) injection of Compound T-62 ranging from 0.5 to 40 μg. Withdrawal thresholds were measured on a Hargreaves device every 30 minutes for three hours.

[5] = system: phenylbenzoquinone-induced writhing in mice; assay: phenylbenzoquinone (PBQ) writhing test; type: in vivo, mouse
Experimental: Testing for use of Compound T62 in treatment of persistent chemical pain was performed following the phenylbenzoquinone (PBQ) writhing tests. This method detects general analgesic activity. Mice were injected with phenylbenzoquinone (PBQ) (1.25 mg/kg i.p.). […] The number of writhes was counted for 10 minutes beginning 5 minutes after injection of PBQ. 8 mice were studied for each treatment group and the test was performed blind.

[6] = target: T2, A1 receptor in rat forebrain membranes (Rattus norvegicus, UniProt P25099); conditions: compound 30 in reference (5), Bruns et al.; read-out: ED50 as an enhancer; cited from earlier work
T2 construct: from tissue; host or cells: rat forebrain membranes
T2 sequence (P25099 1-326): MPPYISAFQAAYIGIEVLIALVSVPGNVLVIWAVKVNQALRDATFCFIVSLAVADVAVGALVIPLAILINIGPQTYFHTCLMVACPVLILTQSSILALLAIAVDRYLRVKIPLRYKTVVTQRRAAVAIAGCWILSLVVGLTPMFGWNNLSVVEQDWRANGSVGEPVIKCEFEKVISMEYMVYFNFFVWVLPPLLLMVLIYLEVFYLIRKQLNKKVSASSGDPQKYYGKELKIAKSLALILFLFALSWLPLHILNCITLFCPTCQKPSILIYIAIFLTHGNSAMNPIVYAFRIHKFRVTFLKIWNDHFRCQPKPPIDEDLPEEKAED

[7] = target: T3, A1 adenosine receptor (Rattus norvegicus, UniProt P25099); conditions: rat brain, cited from earlier work
T3 construct: from tissue; host or cells: rat brain
T3 sequence (P25099 1-326): T2 sequence (P25099 1-326)

[8] = target: T4, A1 adenosine receptor (Cavia porcellus, UniProt P47745); conditions: isolated guinea pig left atrium; cited from earlier work
T4 construct: functional studies conducted in the isolated guinea pig left atrium and isolated ileum; from tissue; host or cells: isolated guinea pig ileum
T4 sequence (P47745 1-326): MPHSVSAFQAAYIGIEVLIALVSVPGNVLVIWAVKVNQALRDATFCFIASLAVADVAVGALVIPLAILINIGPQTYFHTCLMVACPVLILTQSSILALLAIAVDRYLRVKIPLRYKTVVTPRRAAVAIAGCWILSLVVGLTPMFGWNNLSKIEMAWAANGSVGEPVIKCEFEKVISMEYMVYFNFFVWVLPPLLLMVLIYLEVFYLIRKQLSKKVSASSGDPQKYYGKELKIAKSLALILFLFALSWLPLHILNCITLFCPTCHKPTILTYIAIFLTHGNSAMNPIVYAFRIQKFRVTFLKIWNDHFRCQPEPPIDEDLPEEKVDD

[9] = target: T4, A1 adenosine receptor; conditions: isolated ileum; cited from earlier work

SMILES: Nc1sc2c(c1C(=O)c1ccc(Cl)cc1)CCCC2 [Compound T62, (2-Amino-4,5,6,7-tetrahydrobenzo[b]thiophen-3-yl)(4-chlorophenyl)methanone]
- enhancer potency compared to PD 81,723 ([1]; CHO:huA1 cells cAMP): more potent enhancer than PD 81,723
- concentration at which enhancement of the CPA induced inhibition of cyclic AMP production began ([1]; CHO:huA1 cells, forskolin 1 μM, CPA, normalized to 10 μM PD 81,723): 10 nM
- antagonism of the A1 receptor ([1]; at 10 μM Compound T62): does not antagonize; also recorded: no antagonism
- duration of effect on withdrawal threshold ([2]; IP injection, 15 mg/kg): at least 4 hours
- effect on hypersensitivity ([2]; intraperitoneal injection, 15 mg/kg): effective to reduce hypersensitivity
- dose required for efficacy ([2]; intraperitoneal, rats, neuropathic pain): 15 mg/kg
- effect of intraperitoneal Compound T62 after A1 antagonist ([2]; intrathecal DPCPX (5 μg)): blocked
- motor effect ([2]; intrathecal doses larger than 1-5 μg): obvious motor blockade
- duration of effect on withdrawal threshold ([2]; intrathecal injection): over 4 hours
- time of peak effect ([2]; intrathecal injection): 2 h
- dose returning sensitivity (withdrawal threshold) to normal ([2]; intrathecal injection): 5 µg
- Irwin test observations [3]: tremor and tip-toe gait
- dose sufficient to completely reverse hypersensitivity of the inflamed foot to pre-carrageenan levels ([4]; intrathecal, rats with 2 mg intraplantar carrageenan, n=4): 1 µg
- effect on withdrawal thresholds ([4]; normal rats, intrathecal 0.5 to 40 μg): no significant effect
- NUMBER OF WRITHES (5 to 1 5 min after phenylbenzoquinone) mean ± s.e.m. ([5]; 128 mg/kg i.p. −30 minutes): 13.9 ± 3.4
- percent change from control ([5]; 128 mg/kg i.p. −30 minutes): −18%
- NUMBER OF WRITHES (5 to 1 5 min after phenylbenzoquinone) mean ± s.e.m. ([5]; 128 mg/kg i.p. −1 hour): 10.9 ± 2.6
- percent change from control ([5]; 128 mg/kg i.p. −1 hour): −58%
- NUMBER OF WRITHES (5 to 1 5 min after phenylbenzoquinone) mean ± s.e.m. ([5]; 128 mg/kg i.p. −2 hours): 17.3 ± 2.0
- percent change from control ([5]; 128 mg/kg i.p. −2 hours): −38%
- NUMBER OF WRITHES (5 to 1 5 min after phenylbenzoquinone) mean ± s.e.m. ([5]; 128 mg/kg i.p. −4 hours): 13.1 ± 3.5
- percent change from control ([5]; 128 mg/kg i.p. −4 hours): −36%
- NUMBER OF WRITHES (5 to 1 5 min after phenylbenzoquinone) mean ± s.e.m. ([5]; 128 mg/kg i.p. −8 hours): 15.3 ± 4.1
- percent change from control ([5]; 128 mg/kg i.p. −8 hours): +11%
- NUMBER OF WRITHES (5 to 1 5 min after phenylbenzoquinone) mean ± s.e.m. ([5]; 512 mg/kg i.p. −30 minutes): 5.9 ± 2.2
- percent change from control ([5]; 512 mg/kg i.p. −30 minutes): −65%
- NUMBER OF WRITHES (5 to 1 5 min after phenylbenzoquinone) mean ± s.e.m. ([5]; 512 mg/kg i.p. −1 hour): 6.4 ± 1.0
- percent change from control ([5]; 512 mg/kg i.p. −1 hour): −75%
- NUMBER OF WRITHES (5 to 1 5 min after phenylbenzoquinone) mean ± s.e.m. ([5]; 512 mg/kg i.p. −2 hours): 3.5 ± 1.8
- percent change from control ([5]; 512 mg/kg i.p. −2 hours): −87%
- NUMBER OF WRITHES (5 to 1 5 min after phenylbenzoquinone) mean ± s.e.m. ([5]; 512 mg/kg i.p. −4 hours): 4.8 ± 1.5
- percent change from control ([5]; 512 mg/kg i.p. −4 hours): −77%
- NUMBER OF WRITHES (5 to 1 5 min after phenylbenzoquinone) mean ± s.e.m. ([5]; 512 mg/kg i.p. −8 hours): 6.0 ± 1.9
- percent change from control ([5]; 512 mg/kg i.p. −8 hours): −56%
- dose required for efficacy ([5]; intraperitoneal, mice, chemically induced pain): 128 mg/kg
- EC50 [6]: 15.3 µM

SMILES: CCOC(=O)N1CCc2c(sc(N)c2C(=O)c2ccccc2)C1 [PD 78,416]
- enhancement of [3H]CHA binding ([7]; competition studies): not observed
- effect on dissociation of [3H]CHA binding [7]: retards the dissociation
- enhancement of the effect of the agonist CPA [8]: enhanced the effect
- enhancement of the effect of the agonist CPA [9]: failed to enhance

SMILES: Nc1ncnc2c1ncn2[C@@H]1O[C@H](CO)[C@@H](O)[C@H]1O [adenosine, reference compound]
- time of peak effect ([2]; intrathecal injection): 2 h
- dose returning sensitivity (withdrawal threshold) to normal ([2]; intrathecal injection): 30 µg
